Measured values reported in patent US20240132524A1, “SMALL MOLECULES FOR BORON NEUTRON CAPTURE THERAPY” (Aviko Radiopharmaceuticals, LLC, priority 2022, published 2024).
“And” between values parts separate entries of the source, which are not always exact repeats. Equal entries are not always repeated.

Experiments:
SAS (head & neck cancer) = assay: Cell uptake assay in SAS cells; assay type: cell-based, human; conditions: 0.1 mM
Protocol: (§1) • 1.1.1 15 mL of cell culture medium was placed into a T225 flask. • 1.1.2 The flask was placed in a humidified 37° C., 5% CO2 incubator for 15 minutes to allow medium to equilibrate to the proper pH and temperature. • 1.1.3 The vial was removed from liquid nitrogen and thawed rapidly by placing at 37° C. in a water bath with gentle agitation for 1-2 minutes and then decontaminated by wiping with 70% ethanol before opening in a Class II biological safety cabinet. • 1.1.4 The vial contents were transferred dropwise into 10 mL of cell culture medium in a sterile 15 mL conical tube. • 1.1.5 The cells were centrifuged at 1,300 rpm for 5 minutes. • 1.1.6 The supernatant was aspirated and re-suspended the cells and transferred the cells into T225 flask containing cell culture medium.
(§2) • 1.2.1 Culture medium were renewed every 2-3 days. • 1.2.2 Keep the flask in a humidified 37° C., 5% CO2 incubator
(§3) Cells were harvested and diluted in culture medium to the designated concentration. Then the cells were cultured in T25 flasks, one T25 flask for one sample. 2.2 Formulation of test compounds • 2.2.1 L-Boronophenylalanine (L-BPA, 4-boron-L-phenylalanine, Purity: 95%, Chemical formula: C9H12BNO4, MW: 209.01, CAS: 76410-58-7) and fructose were dissolved in PBS at a molar ratio of 1:5, and then a 1.27 M ratio of 1 N NaOH is added. The mixture was stirred until L-BPA is completely dissolved, and the pH value was titrated to 7.2-7.4 with 1N HCl. • 2.2.2 For test compounds other than BPA, stock solutions were prepared of each compound in DMSO or fructose formulation at a concentration of 20 mM (such that final % DMSO in the cellular assay medium=0.5%)
(§4) • 2.3.1 The cells were seeded overnight (12-18 hours) to allow the cells to adhere well. • 2.3.2 The stock solution of each compound was added to each T25 flask such that the final concentration for each compound is 100 uM (0.1 mM). • 2.3.3 The flasks were placed in a 37° C., […] for 1 hour, 4 hour, and 24 hours, the cells were collected by using 0.25% Trypsin with 0.53 mM EDTA. 2.3.5 Centrifuged at 1,300 rpm for 5 min to collect cell pellets.

B16F10 (melanoma) = assay: Cell uptake assay in B16F10 cells; assay type: cell-based, mouse; conditions: 0.1 mM
Protocol: as §1, §2, §3, §4

[1] = tested on: NIH-3T3 (normal cell line); assay: Cell uptake assay in NIH-3T3 cells; assay type: cell-based, mouse; conditions: 0.1 mM
Protocol: as §1, §2, §3, §4

U87-MG (glioblastoma) = assay: Cell uptake assay in U87-MG cells; assay type: cell-based, human; conditions: 0.1 mM
Protocol: as §1, §2
as §3, with “medium=0.5%) […]” for “medium=0.5%)”

[2] = tested on: SAS, B16F10, U87-MG relative to NIH-3T3; assay: Cell uptake assays, cancer cell lines compared with normal cell line; assay type: cell-based, human
Protocol: as §1, §2
Cells were harvested and diluted in culture medium to the designated concentration. Then the cells were cultured in T25 flasks, one T25 flask for one sample. 2.2 Formulation of test compounds • 2.2.1 L-Boronophenylalanine (L-BPA, 4-boron-L-phenylalanine, Purity: 95%, Chemical formula: C9H12BNO4, MW: 209.01, CAS: 76410-58-7) and fructose were dissolved in PBS at a molar ratio of 1:5, and then a 1.27 M ratio of 1 N NaOH is added. […]

Structure (SMILES)	Cell uptake, Mean (ng/10^6 cell), SAS (SAS (head & neck cancer); 1 h)	Cell uptake, Mean (ng/10^6 cell), SAS (SAS (head & neck cancer); 4 h)	Cell uptake, Mean (ng/10^6 cell), SAS (SAS (head & neck cancer); 24 h)	Cell uptake, Mean (ng/10^6 cell), B16F10 (B16F10 (melanoma); 1 h) [ng/10^6 cell]	Cell uptake, Mean (ng/10^6 cell), B16F10 (B16F10 (melanoma); 4 h)	Cell uptake, Mean (ng/10^6 cell), B16F10 (B16F10 (melanoma); 24 h) [ng/10^6 cell]	Cell uptake, Mean (ng/10^6 cell), NIH-3T3 ([1]; 1 h) [ng/10^6 cell]	Cell uptake, Mean (ng/10^6 cell), NIH-3T3 ([1]; 4 h) [ng/10^6 cell]	Cell uptake, Mean (ng/10^6 cell), NIH-3T3 ([1]; 24 h) [ng/10^6 cell]	Cell uptake, Mean (ng/10^6 cell), U87-MG (U87-MG (glioblastoma); 1 h)	Cell uptake, Mean (ng/10^6 cell), U87-MG (U87-MG (glioblastoma); 4 h) [ng/10^6 cell]	Cell uptake, Mean (ng/10^6 cell), U87-MG (U87-MG (glioblastoma); 24 h) [ng/10^6 cell]	Selective uptake by cancer cell lines relative to normal cell line ([2]; SAS, B16F10, U87-MG relative to NIH-3T3)	Uptake in cancer cells relative to Comparator Compounds A and B ([2]; cancer cells)	Cell uptake, Mean (ng/10^6 cell), SAS (SAS (head & neck cancer); 2 h) [ng/10^6 cell]	Cell uptake, Mean (ng/10^6 cell), B16F10 (B16F10 (melanoma); 2 h) [ng/10^6 cell]	Cell uptake, Mean (ng/10^6 cell), NIH-3T3 ([1]; 2 h) [ng/10^6 cell]	Cell uptake, Mean (ng/10^6 cell), U87-MG (U87-MG (glioblastoma); 2 h) [ng/10^6 cell]
N[C@@H](Cc1cccc(B(O)O)c1O)C(=O)O [Comparator Compound B, reference compound]	510 ng/10^6 cell	487 ng/10^6 cell	1465 ng/10^6 cell	131	248 ng/10^6 cell	662	186	122	217	380 ng/10^6 cell	519	250						
N[C@@H](Cc1cccc(B(O)O)c1O)C(=O)O [Compound 1, (S)-2-amino-3-(3-borono-2-hydroxyphenyl)propanoic acid]	863 ng/10^6 cell	1400 ng/10^6 cell	2625 ng/10^6 cell	158	282 ng/10^6 cell	669	109	194	122	175 ng/10^6 cell	713	1315	selective partitioning into cancer cells relative to normal cells	increased uptake in cancer cells relative to Comparator Compounds A and B				
N[C@@H](Cc1c(F)ccc(B(O)O)c1O)C(=O)O [Compound 3, (2S)-2-amino-3-[3-(dihydroxyboranyl)-6-fluoro-2-hydroxyphenyl]propanoic acid]	1320 ng/10^6 cell	1295 ng/10^6 cell	1580 ng/10^6 cell	66.5	255 ng/10^6 cell	196	105	196	182	307 ng/10^6 cell	621	555						
N[C@@H](Cc1ccc(F)c(B(O)O)c1O)C(=O)O [Compound 4, (2S)-2-amino-3-[3-(dihydroxyboranyl)-4-fluoro-2-hydroxyphenyl]propanoic acid]	33.1 ng/10^6 cell	191 ng/10^6 cell	886 ng/10^6 cell	29.5	39.1 ng/10^6 cell	48.1	28.3	36.9	55.3	14.3 ng/10^6 cell	40	117						
N[C@@H](Cc1cc(Cl)cc(B(O)O)c1O)C(=O)O [Compound 6, (2S)-2-amino-3-[5-chloro-3-(dihydroxyboranyl)-2-hydroxyphenyl]propanoic acid]	373 ng/10^6 cell	796 ng/10^6 cell	1735 ng/10^6 cell	39.6	75.9 ng/10^6 cell	222	20.3	59.8	50.8	58.6 ng/10^6 cell	171	244						
N[C@@H](Cc1cc(F)cc(B(O)O)c1O)C(=O)O [Compound 8, (2S)-2-amino-3-13-(dihydroxyboranyl)-5-fluoro-2-hydroxyphenyllpropanoic acid]	561 ng/10^6 cell	693 ng/10^6 cell	1605 ng/10^6 cell	115	185 ng/10^6 cell	615	51.7	119	101	173 ng/10^6 cell	505	545						
N[C@@H](Cc1ccc(B(O)O)cc1)C(=O)O [L-BPA, 4-Borono-L-phenylalanine]	425 ng/10^6 cell and 407 ng/10^6 cell and 260 ng/10^6 cell and 254 ng/10^6 cell and 218 ng/10^6 cell	379 ng/10^6 cell and 352 ng/10^6 cell and 251 ng/10^6 cell and 219 ng/10^6 cell and 217 ng/10^6 cell	423 ng/10^6 cell and 444 ng/10^6 cell and 501 ng/10^6 cell and 261 ng/10^6 cell and 345 ng/10^6 cell and 336 ng/10^6 cell		247 ng/10^6 cell and 224 ng/10^6 cell and 188 ng/10^6 cell and 191 ng/10^6 cell and 185 ng/10^6 cell					391 ng/10^6 cell and 343 ng/10^6 cell and 233 ng/10^6 cell and 196 ng/10^6 cell and 297 ng/10^6 cell					394	986	177	223
